Results reported in paper PMC3462775 (PLoS ONE, 2012).
Values after ≈ are worked out from the molar mass of the structure shown. Bridge positions count the residues as written; N and C are the ends. Square brackets hold non-standard residues; d marks the D form. Peptide text beside a SMILES is read from it. I, II: the chains in the order shown. βAla = NCCC(=O)O

How the values were obtained:
P.aeruginosa AV 65 = format: cell-based, Pseudomonas aeruginosa
Description: (§1) MICs were determined using a standard microdilution assay as recommended by the Clinical and Laboratory Standards Institute. Assays were performed in triplicate using cation-supplemented Mueller-Hinton (MH) broth (Becton Dickinson, Franklin Lakes, NJ, USA) and a bacterial inoculum of 5x10^4 CFU/well, in a final volume of 100 µl. The tested concentrations ranged from 0.1 µM to 24 µM for both peptides. Results were recorded after 18–20 h of incubation at 37°C.

K.pneumoniae ATCC 13833 = assay: MIC, standard microdilution assay; format: cell-based, Klebsiella pneumoniae; details: Reference strain, wild type; CLSI microdilution, cation-supplemented Mueller-Hinton broth, 5x10^4 CFU/well, 18–20 h at 37°C, triplicate
Description: as §1

E.coli W03BG0025 = format: cell-based, Escherichia coli
Description: as §1

S.aureus 3851 = format: cell-based, Staphylococcus aureus
Description: as §1

S.aureus USA 300 = format: cell-based, Staphylococcus aureus
Description: as §1

S.epidermidis 6154 = format: cell-based, Staphylococcus epidermidis
Description: as §1

[1] = tested on: S. aureus ATCC 25923 biofilm; format: cell-based, Staphylococcus aureus; details: for Minimum biofilm eradication concentration (MBEC): ATCC 25923, 20 h
Description: Biofilm formation was performed by adapting the procedure described in [39] using the Calgary Biofilm Device (Innovotech, Innovotech Inc. Edmonton, Canada). Briefly, 96-well plates containing the bacterial inoculum were sealed with lids bearing 96 pegs on which the biofilm could build up. The plates were placed in an orbital incubator at 35°C (for P. aeruginosa and E. coli) or 37°C (for S. aureus) for 20 h under agitation at 125 rpm. Once biofilms formed, the lids were removed from the plates and the pegs were rinsed twice with phosphate buffered saline (PBS) to remove planktonic cells. The peg-lid was then transferred to a 96-well challenge microtiter plate, each well containing 200 µl of a twofold serial dilution of each peptide in LB medium. The challenge plate was incubated at 37°C for 2 hours. Peptide activity on pre-formed biofilm was evaluated by two independent methods: (i) visual observation of bacterial growth and (ii) counting of living bacterial cells after peptide treatment. In the first case, the peg-lid was removed from the challenge plate, rinsed with PBS and used to cover a 96-well recovery microtiter plate, each well containing 200 µl LB medium. The recovery plate was sealed, incubated at 37°C for 4 hours and then observed for any visible growth of bacteria detached from the peptide-treated biofilm. Growth of bacteria in a particular well indicated regrowth of planktonic cells from surviving biofilm. Minimum biofilm eradication concentration (MBEC) was defined as the minimum peptide concentration preventing regrowth of bacteria from the treated biofilm within 4 hours.

[2] = target: T1, Pseudomonas aeruginosa elastase (Pseudomonas aeruginosa, UniProt P14756); format: in vitro ADME; details: 1 mM CaCl2 pH 7.8, 37°C; for stability to elastase (in words): HPLC and MS
T1 construct: purchased Calbiochem
Description: (§2) Tetrabranched M33-L or M33-D peptides (300 µg) were incubated at 37°C with Staphylococcus aureus aureolysin (3 µg, BioCol GmbH) or Pseudomonas aeruginosa elastase (3 µg, Calbiochem) in 300 µl 20 mM Tris-HCl, 1 mM CaCl2 pH 7.8. At indicated time intervals, 50 µl aliquots were removed, diluted with 950 µl of 0.1% trifluoroacetic acid (TFA)/water and analyzed by HPLC and mass spectrometry. Liquid chromatography was performed on Phenomenex Jupiter C18 analytical column (300 Å, 5 µm, 250×4.6 mm) in a 30 min gradient, using TFA 0.1%/water as solvent A and methanol as solvent B. Mass spectrometry analysis was performed on withdrawn samples and repeated on HPLC-eluted peaks with a Bruker Daltonic ultraflex MALDI TOF/TOF mass spectrometer.

[3] = target: T2, Staphylococcus aureus aureolysin (Staphylococcus aureus, UniProt P81177); format: in vitro ADME; details: 1 mM CaCl2 pH 7.8, 37°C; for time of stability / degradation on incubation with aureolysin: 300 µg peptide + 3 µg S. aureus aureolysin in 300 µl 20 mM Tris-HCl, HPLC and MALDI MS read-out
T2 construct: purchased BioCol GmbH
Description: as §2

[4] = Calcein release from liposomes mimicking the membrane of S. aureus; details: CL/PG 4∶6 liposomes, 50 µM lipid, 10 min at 20°C, peptide 0,5 to 15 µM, fluorescence 490/517 nm, three independent experiments
Description: (§3) To investigate interaction of peptides M33-D and M33-L with the bacterial membrane, including possible perturbation, we used vesicles with two lipid compositions to mimic the membrane of S. aureus (CL/PG, 4∶6 mol/mol) and E. coli (PE/PG, 7∶3 mol/mol). […] The peptide-induced effect was dose-dependent in both vesicle lipid compositions. […] No significant differences in the effects induced by M33-D and M33-L were evident, although the D peptide seemed slightly more efficient towards CL/PG liposomes at doses above 8 µM. […] The greater perturbing effect of both forms of M33 on PE/PG vesicles, compared to vesicles containing cardiolipin, was evident.
(§4) Calcein-loaded liposomes of two different composition (PE/PG, 7∶3 mol/mol and CL/PG, 4∶6 mol/mol) were prepared as follows. […] Lipid concentration of vesicles was measured by the method of Stewart and the final concentration used for all measurements was 50 µM. Calcein fluorescence in the vesicles is self-quenched and leakage was measured by relief of quenching; the measurements were carried out at 517 nm, exciting at 490 nm, with a Perkin-Elmer LS 50B spectrofluorimeter. […] Leakage was calculated by the equation: [drawing 1] where F and Ft are fluorescence […] addition of detergent and F0 the fluorescence of intact vesicles.

[5] = Calcein release from liposomes mimicking the membrane of E. coli; details: PE/PG 7∶3 liposomes, 50 µM lipid, 10 min at 20°C, peptide 0,5 to 15 µM, fluorescence 490/517 nm, three independent experiments
Description: as §3, §4

[6] = 300 µg peptide + 3 µg P. aeruginosa elastase, 20 mM Tris-HCl

T2 sequence (P81177 209-509): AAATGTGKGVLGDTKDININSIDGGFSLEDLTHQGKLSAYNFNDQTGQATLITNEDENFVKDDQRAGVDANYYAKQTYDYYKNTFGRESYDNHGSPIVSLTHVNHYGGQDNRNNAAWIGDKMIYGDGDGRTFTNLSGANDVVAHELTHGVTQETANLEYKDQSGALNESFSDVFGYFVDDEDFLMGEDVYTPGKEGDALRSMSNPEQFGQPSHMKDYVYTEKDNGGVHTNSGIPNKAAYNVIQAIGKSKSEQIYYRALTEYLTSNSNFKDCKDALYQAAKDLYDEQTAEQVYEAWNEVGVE
T1 sequence (P14756 198-498): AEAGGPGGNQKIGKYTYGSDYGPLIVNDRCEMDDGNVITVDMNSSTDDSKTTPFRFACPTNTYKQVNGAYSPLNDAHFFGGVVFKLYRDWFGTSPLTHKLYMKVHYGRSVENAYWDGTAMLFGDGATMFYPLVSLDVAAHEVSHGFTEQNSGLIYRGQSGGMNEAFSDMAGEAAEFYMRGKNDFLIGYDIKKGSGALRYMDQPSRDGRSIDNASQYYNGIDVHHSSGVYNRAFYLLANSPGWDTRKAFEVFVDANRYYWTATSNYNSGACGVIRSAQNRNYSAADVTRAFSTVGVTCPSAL

| SMILES | MIC (P.aeruginosa AV 65) [µM] | MIC (K.pneumoniae ATCC 13833) [µM] | MIC (E.coli W03BG0025) [µM] | MIC (S.aureus 3851) [µM] | MIC (S.aureus USA 300) [µM] | MIC (S.epidermidis 6154) [µM] | Minimum biofilm eradication concentration (MBEC) [1] [µM] | time of resistance to degradation by elastase ([2]; 300 µg peptide + 3 µg P. aeruginosa elastase in 300 µl 20 mM Tris-HCl, HPLC and MALDI MS read-out) [h] | stability to elastase (in words) [2, 6] | time of stability / degradation on incubation with aureolysin [3] [h] | peptide concentration giving maximum calcein release [4] | peptide concentration giving total calcein leakage [5] [µM] | activity in biofilm eradication experiments with respect to M33-D ([1]; S. aureus biofilm eradication, relative to M33-D) [%] | stability after 5 h incubation with elastase (in words) ([2]; 5 h, 300 µg peptide + 3 µg P. aeruginosa elastase, 20 mM Tris-HCl, HPLC peak of intact peptide still present) | stability to aureolysin (in words) ([3]; 300 µg peptide + 3 µg S. aureus aureolysin, 20 mM Tris-HCl, HPLC and MS) |
| --- | --- | --- | --- | --- | --- | --- | --- | --- | --- | --- | --- | --- | --- | --- | --- |
| CC[C@@H](C)[C@@H](NC(=O)[C@@H](CCCCN)NC(=O)[C@H](N)CCCCN)C(=O)N[C@H](CCCNC(=N)N)C(=O)N[C@@H](C(=O)N[C@H](CCCNC(=N)N)C(=O)N[C@H](CC(C)C)C(=O)N[C@H](CO)C(=O)N[C@H](C)C(=O)NCCCC[C@H](NC(=O)[C@@H](C)NC(=O)[C@@H](CO)NC(=O)[C@@H](CC(C)C)NC(=O)[C@@H](CCCNC(=N)N)NC(=O)[C@H](NC(=O)[C@@H](CCCNC(=N)N)NC(=O)[C@H](NC(=O)[C@@H](CCCCN)NC(=O)[C@H](N)CCCCN)[C@H](C)CC)C(C)C)C(=O)NCCCC[C@H](NC(=O)[C@H](CCCCNC(=O)[C@@H](C)NC(=O)[C@@H](CO)NC(=O)[C@@H](CC(C)C)NC(=O)[C@@H](CCCNC(=N)N)NC(=O)[C@H](NC(=O)[C@@H](CCCNC(=N)N)NC(=O)[C@H](NC(=O)[C@@H](CCCCN)NC(=O)[C@H](N)CCCCN)[C@H](C)CC)C(C)C)NC(=O)[C@@H](C)NC(=O)[C@@H](CO)NC(=O)[C@@H](CC(C)C)NC(=O)[C@@H](CCCNC(=N)N)NC(=O)[C@H](NC(=O)[C@@H](CCCNC(=N)N)NC(=O)[C@H](NC(=O)[C@@H](CCCCN)NC(=O)[C@H](N)CCCCN)[C@H](C)CC)C(C)C)C(=O)NCCC(=O)O)C(C)C [M33-D] (I: H-[dK][dK][dI][dR][dV][dR][dL][dS][dA]KK[βAla]-OH / II: H-[dK][dK][dI][dR][dV][dR][dL][dS][dA]K / III: H-[dK][dK][dI][dR][dV][dR][dL][dS][dA] / IV: H-[dK][dK][dI][dR][dV][dR][dL][dS][dA]; amide I:10-IV:C, I:11-II:C, II:10-III:C; N-terminus assumed) | 3 (≈ 14 µg/mL) | 3 (≈ 14 µg/mL) | 3 (≈ 14 µg/mL) | 0.7 (≈ 3.28 µg/mL) | 1.5 (≈ 7.02 µg/mL) | 0.7 (≈ 3.28 µg/mL) | 1.5 | ≥ 24 | highly stable | ≥ 24 | greater than 10 µM | 5 |  |  |  |
| CC[C@H](C)[C@H](NC(=O)[C@H](CCCCN)NC(=O)[C@@H](N)CCCCN)C(=O)N[C@@H](CCCNC(=N)N)C(=O)N[C@H](C(=O)N[C@@H](CCCNC(=N)N)C(=O)N[C@@H](CC(C)C)C(=O)N[C@@H](CO)C(=O)N[C@@H](C)C(=O)NCCCC[C@H](NC(=O)[C@H](C)NC(=O)[C@H](CO)NC(=O)[C@H](CC(C)C)NC(=O)[C@H](CCCNC(=N)N)NC(=O)[C@@H](NC(=O)[C@H](CCCNC(=N)N)NC(=O)[C@@H](NC(=O)[C@H](CCCCN)NC(=O)[C@@H](N)CCCCN)[C@@H](C)CC)C(C)C)C(=O)NCCCC[C@H](NC(=O)[C@H](CCCCNC(=O)[C@H](C)NC(=O)[C@H](CO)NC(=O)[C@H](CC(C)C)NC(=O)[C@H](CCCNC(=N)N)NC(=O)[C@@H](NC(=O)[C@H](CCCNC(=N)N)NC(=O)[C@@H](NC(=O)[C@H](CCCCN)NC(=O)[C@@H](N)CCCCN)[C@@H](C)CC)C(C)C)NC(=O)[C@H](C)NC(=O)[C@H](CO)NC(=O)[C@H](CC(C)C)NC(=O)[C@H](CCCNC(=N)N)NC(=O)[C@@H](NC(=O)[C@H](CCCNC(=N)N)NC(=O)[C@@H](NC(=O)[C@H](CCCCN)NC(=O)[C@@H](N)CCCCN)[C@@H](C)CC)C(C)C)C(=O)NCCC(=O)O)C(C)C [M33-L] (I: H-KKIRVRLSAKK[βAla]-OH / II: H-KKIRVRLSAK / III: H-KKIRVRLSA / IV: H-KKIRVRLSA; amide I:10-IV:C, I:11-II:C, II:10-III:C; N-terminus assumed) | 3 (≈ 14 µg/mL) | 1.5 (≈ 7.02 µg/mL) | 0.7 (≈ 3.28 µg/mL) | 12 (≈ 56.2 µg/mL) | 6 (≈ 28.1 µg/mL) | 3 (≈ 14 µg/mL) | 12 |  | poorly stable | ≤ 1 | greater than 10 µM | 5 | 12 | moderate peptide stability | not at all stable |
